{"source": "patent US8759010B2", "about": "“Host cell kinases as targets for antiviral therapies against HCV infection” (INSERM (Institut National de la Sante et de la Recherche …, priority 2008, dated 2014)", "key": {"HCVpp JFH1; genotype 2a": {"system": "HCVpp JFH1; genotype 2a", "test": "HCVpp entry in primary human hepatocytes", "assay_type": "cell-based, HCV", "details": "JFH1-derived HCVpp; inhibitor added 1 h prior to infection; FIG. 9B"}, "[1]": {"system": "HCVcc Luc-Jc1, genotype 2a/2a", "test": "microbe, parasite or virus in culture", "assay_type": "cell-based, HCV", "details": "for IC50: Hepatitis C virus, hepatocytes or hepatocyte-derived cell lines, FIG. 9, read-out: IC50, inhibition of HCV entry and infection"}, "[2]": {"system": "HCVpp (genotype 1b) bearing envelope glycoproteins from HCV strains VD, VH, VK, VN", "test": "Entry of patient-derived HCVpp in primary human hepatocytes", "assay_type": "cell-based", "details": "10 μM, 1 h prior to infection, FIG. 10C"}, "[3]": {"system": "subgenomic HCV JFH1 replicon", "test": "HCV replication, subgenomic JFH1 replicon, Northern blot", "assay_type": "cell-based", "details": "Huh7.5 cells electroporated with subgenomic JFH1 replicon RNA, 24 h incubation, FIG. 9C", "description": "HEK 293T, Huh7 and Huh7.5.1 cells used in the present study have previously been described (Bartosch, 2003; Barth, 2003; Zhong, 2005). Primary human hepatocytes were isolated and cultured as previously described (David, 1998, which is incorporated herein by reference in its entirety). Subgenomic HCV replicon JFH1-SGR used herein has also previously been described (Kato, 2005).\nA 9.7 kb fragment derived from plasmid […] (Wakita, 2005) digested with XbaI and EcoRI was labeled with α^32P-CTP using NEBlot kit (NEB, USA). Northern blotting was performed according to standard protocols (F. M. Ausubel et al., “Current Protocols in Molecular Biology”, John Wiley 1 Sons, Inc., 2007).\nElectroporation of RNA derived from plasmids pSGR-JFH1 was performed as previously described (Lan, 2008). Four hours after electroporation, cells were incubated with protein kinase inhibitors in cell culture supernatant for 24 hours. Total RNA was isolate and analyzed by Northern blot analysis of HCV RNA as described (Lohmann, 1999)."}, "Huh7.5 cells": {"system": "Huh7.5 cells", "test": "MTT cell viability, Huh7.5 cells", "assay_type": "cell-based, human", "details": "10 μM, FIG. 7C", "experimental": "(§1) Toxicity Assays. Cytotoxicity effects on cells were assessed in triplicates by analyzing the ability to metabolize 3-(4,5-dimethylthiazol-2-yl)-2,5-diphenyltetrazolium bromide (MTT) (Lan, 2008). For siRNA experiments, MTT was added 3 days after transfection with siRNA for 5 hours. The final concentration of MTT was 0.6 mg/mL. Formazan crystals produced by the cells were solubilized and measured as described (Mosmann, 1983). 2. Identification of Cellular Kinases Involved in HCV Entry Using a Genome-Wide RNAi Kinase HCV Entry Screen"}, "Huh7.5.1 cells": {"system": "Huh7.5.1 cells", "test": "MTT cell viability, Huh7.5.1 cells", "assay_type": "cell-based, human", "details": "10 μM, FIG. 7D", "experimental": "as §1"}, "HCVcc JFH1": {"system": "HCVcc JFH1", "test": "HCVcc infection of Huh7.5.1 cells, luciferase reporter or RT-PCR of HCV RNA (Example 1)", "assay_type": "cell-based", "details": "1 μM or 10 μM inhibitor, dose-dependent, FIG. 3", "experimental": "Bicistronic plasmid pFK-Luc-Jc1 (Koutsoudakis, 2006) encodes a luciferase reporter gene and a chimeric HCV genome designated Jc1 which consists of J6CF and JFH1 segments. In vitro HCV RNA synthesis and RNA transfection were carried out as previously described (Wakita, 2005). Culture supernatants from transfected cells were cleared and concentrated as previously described using an Amicon Ultra 15 (Millipore, USA) and used directly or were stored at 4° C. or −80° C. Viruses were titrered by using the limiting dilution assay on Huh7.5.1 cells with a few minor modifications and TCID50 values were calculated based on a method previously described (Lindenbach, 2005).\nAll inhibitors used in this study were obtained from LC Laboratories (USA). Before use, they were dissolved in DMSO and diluted in Huh7.5.1 cell culture medium (Zhong, 2005). Following incubation, HCVpp entry and HCVcc infection were assessed by luciferase reporter gene expression or RT-PCR of HCV RNA in cells as previously reported (Pestka, 2007; Zeisel, 2007)."}, "HCVpp H77C, genotype 1a": {"system": "HCVpp H77C, genotype 1a", "test": "HCVpp entry in hepatoma cells, luciferase reporter (Example 1)", "assay_type": "cell-based, HCV", "details": "Huh7.5.1 cells, 1 μM or 10 μM inhibitor, 1 h prior to 3 h post-infection, FIG. 3"}, "[4]": {"details": "achievable plasma concentrations; Hidalgo and Bloedow, 2003; cited from earlier work"}, "[5]": {"system": "HCVpp (genotype 1b) bearing envelope glycoproteins from HCV strains VD, VH, VK, VN", "test": "Entry of patient-derived HCVpp in Huh7.5 cells", "assay_type": "cell-based", "details": "10 μM, 1 h prior to infection, FIG. 10B"}, "HCVpp": {"system": "HCVpp", "test": "HCVpp entry in primary human hepatocytes (Flavopiridol)", "details": "HCVpp strain not stated"}, "[6]": {"system": "primary human hepatocytes", "test": "MTT cell viability, primary human hepatocytes", "assay_type": "cell-based", "experimental": "Toxicity Assays. […] For siRNA experiments, MTT was added 3 days after transfection with siRNA for 5 hours. The final concentration of MTT was 0.6 mg/mL. […] 2."}}, "note": "Entries after “also recorded” stand apart in the source; their conditions may differ. Read-outs that look alike come from different tables or passages of the source.", "data": [{"compound": "Cc1nc(Nc2ncc(C(=O)Nc3c(C)cccc3Cl)s2)cc(N2CCN(CCO)CC2)n1", "note": "[Dasatinib]", "values": [{"measurement": "HCVpp entry in primary human hepatocytes", "setting": "HCVpp JFH1; genotype 2a", "result": "markedly inhibited"}, {"measurement": "IC50", "setting": "[1]", "result": 2000, "unit": "nM"}, {"measurement": "Entry of patient-derived HCVpp in primary human hepatocytes", "setting": "[2]", "result": "markedly inhibited"}, {"measurement": "HCV replication", "setting": "[3]", "result": "did not inhibit"}]}, {"compound": "c1cc(-c2cnn3cc(-c4ccc(OCCN5CCCCC5)cc4)cnc23)ccn1", "note": "[Dorsomorphin]", "values": [{"measurement": "Cell viability (MTT assay)", "setting": "Huh7.5 cells", "result": "not diminished"}, {"measurement": "Cell viability (MTT assay)", "setting": "Huh7.5.1 cells", "result": "slightly reduced"}]}, {"compound": "C#Cc1cccc(Nc2ncnc3cc(OCCOC)c(OCCOC)cc23)c1", "note": "[Erlotinib]", "values": [{"measurement": "HCVpp entry in primary human hepatocytes", "setting": "HCVpp JFH1; genotype 2a", "result": "dose-dependently inhibited"}, {"measurement": "HCVcc infection", "setting": "HCVcc JFH1", "result": "markedly inhibit"}, {"measurement": "HCVpp entry", "setting": "HCVpp H77C, genotype 1a", "result": "markedly inhibit"}, {"measurement": "HCVcc infection", "setting": "[1]; HCVcc Luc-Jc1, inhibitor added 1 h prior to infection, dose-dependent, FIG. 9A", "result": "dose-dependently inhibited; also recorded: markedly inhibited"}, {"measurement": "IC50", "setting": "[1]; Hepatocyte", "result": "~500", "unit": "nM"}, {"measurement": "Inhibitory effect on HCVcc infection by detection of viral RNA using RT-PCR", "setting": "[1]; data not shown", "result": "confirmed"}, {"measurement": "mean plasma concentrations", "setting": "[4]", "result": "~4", "unit": "µM"}, {"measurement": "Entry of patient-derived HCVpp in Huh7.5 cells", "setting": "[5]", "result": "markedly inhibited; also recorded: more potent than Dasatinib"}, {"measurement": "Entry of patient-derived HCVpp in primary human hepatocytes", "setting": "[2]", "result": "markedly inhibited"}, {"measurement": "HCV replication", "setting": "[3]", "result": "without markedly modulating replication; also recorded: did not inhibit"}]}, {"compound": "CN1CC[C@H](c2c(O)cc(O)c3c(=O)cc(-c4ccccc4Cl)oc23)[C@H](O)C1", "note": "[Flavopiridol]", "values": [{"measurement": "HCVpp entry in primary human hepatocytes", "setting": "HCVpp", "result": "markedly inhibited"}, {"measurement": "Cytotoxic effects", "setting": "[6]", "result": "absence of any detectable cytotoxic effects"}]}, {"compound": "COc1cc2ncnc(Nc3ccc(F)c(Cl)c3)c2cc1OCCCN1CCOCC1", "note": "[Gefitinib]", "values": [{"measurement": "HCVcc infection", "setting": "HCVcc JFH1", "result": "markedly inhibit"}, {"measurement": "HCVpp entry", "setting": "HCVpp H77C, genotype 1a", "result": "markedly inhibit"}]}, {"compound": "CS(=O)(=O)CCNCc1ccc(-c2ccc3ncnc(Nc4ccc(OCc5cccc(F)c5)c(Cl)c4)c3c2)o1", "note": "[Lapatinib]", "values": [{"measurement": "HCVcc infection", "setting": "HCVcc JFH1", "result": "markedly inhibit"}, {"measurement": "HCVpp entry", "setting": "HCVpp H77C, genotype 1a", "result": "markedly inhibit"}]}, {"compound": "N#Cc1cnc2cnc(NCc3cccnc3)cc2c1Nc1ccc(F)c(Cl)c1", "note": "[TpI2 kinase inhibitor]", "values": [{"measurement": "Entry of patient-derived HCVpp in Huh7.5 cells", "setting": "[5]", "result": "did not result in a reproducible inhibition"}]}, {"compound": "COC[C@H]1OC(=O)c2coc3c2[C@@]1(C)C1=C(C3=O)[C@@H]2CCC(=O)[C@@]2(C)C[C@H]1OC(C)=O", "note": "[Wortmannin]", "values": [{"measurement": "HCVpp entry in primary human hepatocytes", "setting": "HCVpp JFH1; genotype 2a", "result": "did not have any effect"}, {"measurement": "Entry of patient-derived HCVpp in Huh7.5 cells", "setting": "[5]", "result": "did not inhibit"}]}]}
